Series [1] can be described thus: LNP size and polydispersity index by Dynamic Light Scattering (Malvern Zetasizer). In kind it is physicochemical.
Series [2] is described as follows: mRNA encapsulation efficiency by Ribogreen RNA assay. The settings on record: for E.E. (encapsulation efficiency): N/P 10. The class given is physicochemical. As for the experimental part:
Lipid based nanoparticles are produced by microfluidic mixing of an mRNA solution in sodium acetate buffer (100 mM, pH4) and lipid solution in a 2:1 volume ratio at a speed of 9 mL/min using the NanoAssemblr Benchtop (Precision Nanosystems). The lipid solution contained a mixture of the ionizable lipid of interest, DSPC, DOPC or DOPE (Avanti), Cholesterol (Sigma) and DMG-PEG2000 (Sunbright GM-020, NOF corporation. The 4 lipids were mixed at 6 different molar ratios. LNPs were dialyzed against TBS (10000 times more TBS volume than LNP volume) using slide-a-lyzer dialysis cassettes (20K MWCO, 3 mL, ThermoFisher). Size, polydispersity and zeta potential were measured with a Zetasizer Nano (Malvern). mRNA encapsulation was measured by standard Ribogreen RNA assay (Invitrogen). […]
(§1) LNP formulations were prepared using a modified procedure of a method previously described for siRNA LNP synthesis. All formulations were prepared in a sterile manner with a N/P ratio of 10. All lipid components were dissolved in ethanol at molar ratios of 50:10:38.5:1.5 mol % (ionizable lipid/DSPC/Cholesterol/DMG-PEG2000). DSPC, Cholesterol and DMG-PEG2000 were purchased from Avanti Polar Lipids (Alabaster, Alabama, USA), while the Ionizable lipids are synthesized in-house. The final lipid concentration in ethanol was fixed at 10 mg/mL. E7 mRNA was dissolved in 100 mM acetate buffer (Sigma Aldrich, Saint-Louis, Missouri, USA) pH 4. The ethanol and aqueous phase were combined using a microfluidic mixer (NanoAssemblr® BenchTop (Precision Nanosystems, Vancouver, BC) in a 2:1 (aqueous:ethanol) ratio. Formulations were dialysed afterwards against 1× Sterile TBS pH 7.4 (Sigma Aldrich, Saint-Louis, Missouri, USA) using Slide-A-Lyzer® dialysis cassettes with a MWCO of 20.000 Da (Thermo Scientific, Massachusetts, USA) for 18 hours. Afterwards, the purified formulations were concentrated using Amicon ultra centrifugal filters (EMD Millipore, Massachusetts, USA). Finally, the exact concentration and E.E. % was determined through a Ribogreen Assay prior to final dilution with TBS (100 μg/mL E7 mRNA per formulation. All formulations were characterized for size and PDI using Dynamic Light Scattering Zetasizer Nano-ZS (Malvern Pananlytical Ltd., Malvern, UK) and stored afterwards at 4° C. The physico-chemical characteristics of each formulation can be found in Table 5.

Series [3] is described as follows: LNP size and polydispersity index by Dynamic Light Scattering (Malvern Zetasizer). In kind it is physicochemical. Particulars: N/P 10. The protocol: Lipid based nanoparticles are produced by microfluidic mixing of an mRNA solution in sodium acetate buffer (100 mM, pH4) and lipid solution in a 2:1 volume ratio at a speed of 9 mL/min using the NanoAssemblr Benchtop (Precision Nanosystems). The lipid solution contained a mixture of the ionizable lipid of interest, DSPC, DOPC or DOPE (Avanti), Cholesterol (Sigma) and DMG-PEG2000 (Sunbright GM-020, NOF corporation. The 4 lipids were mixed at 6 different molar ratios. LNPs were dialyzed against TBS (10000 times more TBS volume than LNP volume) using slide-a-lyzer dialysis cassettes (20K MWCO, 3 mL, ThermoFisher). Size, polydispersity and zeta potential were measured with a Zetasizer Nano (Malvern). mRNA encapsulation was measured by standard Ribogreen RNA assay (Invitrogen).
Size and Poly Dispersity Index were assessed by Dynamic Light Scattering (DLS) on a Malvern Zetasizer. MC-3 is the ionizable lipid used in Onpattro and is considered the state-of-the art.
as §1

Another series relates to E7-specific CD8 T cells. In words: E7-specific CD8 T cell response after intramuscular E7 mRNA LNP vaccination (Example 5). In kind it is in vivo, mice. The settings on record: Example 5, FIG. 13, in vitro stimulation with E7-derived peptide, vs MC-3.
Series [4] can be described thus: Body weight after intratumoral LNP administration (B16F10 model). In kind it is in vivo, C57/BL6 mice. The settings on record: B16F10 model (Example 2.5); after intratumoral administration of 10 μg mRNA LNP.
A short description of series [5]: Body weight after intratumoral LNP administration (CT26 model). The class given is in vivo, Balb/c mice. The settings on record: after intratumoral administration of 10 μg mRNA LNP. The protocol: Fluc mRNA expression in tumor and liver was assessed at 6 an 24 hours post injection. By injecting mice peritoneally with D-luciferin (Promega), bioluminescence can be measured through in vivo imaging (IVIS Spectrum System). Bioluminescence is generated through an oxidation reaction which occurs between the enzyme luciferase derived from the firefly mRNA encapsulated in the LNP and its substrate D-luciferin. The Living Image Software (PerkinElmer) was used to specify tumor and liver ‘region of interests (ROIs) after which the average radiance (p/s/cm^2/sr) was calculated within these ROIs. To monitor tolerability of different LNP types used, bodyweight at 6 and 24 hours post injection was compared to baseline bodyweight at day of randomization.
Balb/c mice were subcutaneously inoculated with CT26 tumor cells. When tumors reached a mean volume of 50-100 mm^3, tumors were injected with the respective mRNA LNPs (10 μg mRNA; 20 μl volume; TBS buffer) or with control buffer.

The test system of series [6] is liver. In words: Fluc mRNA off-target expression in liver after intratumoral LNP injection of B16F10 tumors. Particulars: B16F10 tumors (Example 2.5); intratumoral 10 μg mRNA; 6 hours and 24 hours post injection; vs MC-3 based benchmark LNP. In kind it is in vivo, C57/BL6 mice. The protocol:
(§2) In case of CT26 tumor inoculation we used Balb/c mice. For B16F10 tumor inoculation C57/BL6 mice were used. To prepare for subcutaneous tumor inoculation, mice were anesthetized using 2.5% isoflurane and the injection site was shaved. The injection site is typically on the posterior/lateral aspect of the lower left flank. For inoculation purposes, cells need to be approximately 1 week in culture and between passage 3 and 5 after thawing. Cold tumor cell solution was injected subcutaneously at a dose of 0.5*10e6 cells/50 μl PBS. Tumor growth was measured every 2-3 days using the Caliper device. The following formula was used to calculate tumor size: (tumor width*tumor width*tumor length)/2. […] After injections, mice were always monitored for 5-10 minutes until fully awake without showing any sings of pain distress or complications.
(§3) Fluc mRNA expression in tumor and liver was assessed at 6 an 24 hours post injection. By injecting mice peritoneally with D-luciferin (Promega), bioluminescence can be measured through in vivo imaging (IVIS Spectrum System). […] The Living Image Software (PerkinElmer) was used to specify tumor and liver ‘region of interests (ROIs) after which the average radiance (p/s/cm^2/sr) was calculated within these ROIs. […]

Series [7] deals with liver. Nature of the series: Fluc mRNA off-target expression in liver after intratumoral LNP injection of CT26 tumors. In kind it is in vivo, Balb/c mice. Particulars: intratumoral 10 μg mRNA, 6 hours and 24 hours post injection, vs MC-3 based benchmark LNP. The protocol: as §2, §3
In a further series the test system is B16F10 tumors. Nature of the series: Fluc mRNA expression in tumor after intratumoral LNP injection, in vivo bioluminescence. The settings on record: B16F10 tumors (Example 2.5); intratumoral 10 μg mRNA; 6 hours and 24 hours post injection; vs MC-3 based benchmark LNP. Further details: species or system C57/BL6 mice. The protocol:
as §2, §3

[8] abbreviates: Table 6 (Example 4, HA mRNA), ionizable lipid/DSPC/Chol/DMG-PEG2000 50/10/38.5/1.5 mol %, N/P 10.
Setting [9] is: Table 7, Ratio 2: 56.71/14.43/27.58/1.28 mol % ionizable lipid/DSPC/Chol/DMG-PEG2000, N/P 10.
Setting [10] is: Table 6 (Example 4, HA mRNA), ionizable lipid/DSPC/Chol/DMG-PEG2000 50/10/38.5/1.5 mol %.
Where [11] appears, read: Table 7, Ratio 1: 50/10/38.5/1.5 mol % ionizable lipid/DSPC (SS-EC: DOPE)/Chol/DMG-PEG2000.
[12] abbreviates: Table 7, Ratio 2: 56.71/14.43/27.58/1.28 mol % ionizable lipid/DSPC/Chol/DMG-PEG2000.
Where [13] appears, read: Table 3, LNP ionizable lipid/phospholipid/cholesterol/DMG-PEG2000 about 50/10/38.5/1.5, DOPE, except MC-3 with DSPC, eGFP mRNA.
The mark [14] stands for this setting: Table 5, ionizable lipid/DSPC/Chol/DMG-PEG2000 50/10/38.5/1.5 mol %, E7 mRNA.

In the case of `CCCCCCCCC(CCCCCC)C(=O)OCCN(CCOC(=O)C(CCCCCC)CCCCCCCC)C(=O)OCCSSCCOC(=O)NCCN1CCCCCC1` (stereo not drawn) [S-Ac7-DHDa], the PDI in series [1] (setting [8]) is listed as 0.083; in series [1] (setting [9]) it was 0.081; in series [3] (setting [11]), 0.095. The size was found to be 105.1 nm in series [1] (setting [8]), 88 nm in series [1] (setting [9]) and 90 nm in series [3] (setting [11]). In addition, the “E.E. (encapsulation efficiency)” value in series [2] (setting [10]) was 97%; in series [2] (setting [11]), 97%; in series [2] (setting [12]), 95%. Further, the “T cell responses (IFNg+, IFNg+ TNFa+, IFNg+ Granzyme b+, IFNg+ CD107+ CD8 T cells in spleen)” value in the series with E7-specific CD8 T cells is “superior T cell responses compared to MC-3”.

Consider `CCCCCCCC/C=C\CCCCCCCC(=O)OCC(CNC(=O)OCCSSCCOC(=O)NCCN1CCCCCC1)OC(=O)CCCCCCC/C=C\CCCCCCCC` (stereo not drawn) [S-Ac7-DOg], for which the body weight result in series [4] and in [5] was “No weight loss” in each case. The “off-target Fluc expression in the liver” value with liver [6] and with liver [7] was “strongly reduced off-target expression in the liver” in each case. The PDI is reported as 0.21 in series [1] (setting [13]); 0.077 in series [1] (setting [8]); 0.106 in series [1] (setting [9]); 0.062 in [3] (setting [14]); 0.094 in series [3] (setting [11]). Moreover, the size in [1] (Table 3, LNP ionizable lipid/phospholipid/cholesterol/DMG-PEG2000 about 50/10/38.5/1.5, DOPE, except MC-3 with DSPC, eGFP mRNA, in nm (unit assumed)) is given as 87.46; in series [1] (setting [8]), 93.62 nm; in [1] (setting [9]) it was 97 nm; in series [3] (setting [14]), 97.51 nm; in [3] (setting [11]) it was 109 nm. For the same compound, in [2] (setting [13]), the “% encap” value was 90%. The “E.E. (encapsulation efficiency)” value in series [2] (setting [14]) is on record as 96%; in series [2] (setting [10]) it was 98%; in [2] (setting [11]), 97%; in [2] (setting [12]), 96%. The “Fluc expression levels in the tumor (in vivo bioluminescence)” value with B16F10 tumors is on record as “increased Fluc expression levels in the tumor compared to the MC-3 based benchmark LNP”.

For the origin of these results see patent US20240050574A1, “IONIZABLE LIPIDS” (eTheRNA immunotherapies NV, priority 2020, published 2024).
